Assays:
[1] = target: EGFR del19/T790M (Homo sapiens (Human), UniProt P00533, DEL746-750/T790M); test: HTRF enzyme assay, EGFR del19/T790M mutant enzyme; assay type: biochemical; details: recombinant enzyme, 37° C. 2 hours
Procedure: (§1) An experiment to measure the activity of the compounds of the present invention against EGFR mutant enzymes was performed as follows using the HTRF system sold by Cisbio. For the EGFR del19/T790M mutant enzyme, a recombinant protein provided by Carna Biosciences was purchased and used, and for the EGFR del19/T790M/C797S mutant enzyme, a protein provided by SignalChem was purchased and used as an enzyme source.
(§2) The composition of the assay buffer used for measuring the activity was 50 mM Tris-HCl pH 7.5, 100 mM NaCl, 7.5 mM MgCl2, 3 mM KCl, 0.01% Tween 20, 0.1% BSA, and 1 mM DTT. Here, an enzyme reaction was performed using ATP at a concentration of […] and a peptide substrate labeled with biotin at a concentration of […]. Analysis of the inhibitory effect of the compounds against the EGFR activity was conducted according to the following analysis reaction recipe. • Component 1: 4 μL of an EGFR mutant enzyme • Component 2: 2 μL of a compound solution • Component 3: 4 μL of ATP and a peptide labeled with biotin
(§3) The enzyme reaction was started by first mixing Component 1 and Component 2 and then adding Component 3. After reaction at 37° C. for 2 hours, […] of measurement solution consisting of streptavidin-XL665 and europium-labeled anti-phosphotyrosine antibody provided by Cisbio was added to the enzyme reaction solution and reacted at room temperature for 1 hour. Finally, the ratio of fluorescence values at 615 nm and 665 nm was obtained using the Envision equipment from Perkin-Elmer to quantitatively measure the enzyme activity and confirmed the inhibitory ability of the compounds. The measurement values measured at seven compound concentrations were analyzed using the Prism program (version 5.01, Graphpad Software, Inc.), and the IC50 value, which is an indicator of the inhibitory ability of the compound, was calculated.

[2] = test system: Ba/F3 EGFR L858R/T790M; test: CellTiter-Glo cell viability, Ba/F3 EGFR L858R/T790M; assay type: cell-based; details: 72 hours
Procedure: (§4) An experiment to measure the activity of the compounds of the present invention against the mutant Ba/F3 EGFR cell line was performed as follows using the CellTiter-Glo system sold by Promega. The CellTiter-Glo assay is a method to confirm the cell viability by measuring ATP present in cells in cell culture. The Ba/F3 EGFR L858R, Ba/F3 EGFR L858R/T790M, Ba/F3 EGFR L858R/T790M/C797S mutant cell line was used. The Ba/F3 EGFR L858R, Ba/F3 EGFR L858R/T790M, and Ba/F3 EGFR L858R/T790M/C797S mutant cell lines was cultured in RPMI containing 10% FBS and 1% penicillin-streptomycin with 1 μg of puromycin in an incubator at 37° C. and 5% CO2.
(§5) Analysis of the inhibitory ability effect of the compounds against EGFR was conducted according to the following analysis reaction recipe.
(§6) 2500 cells/90 μl were passaged and cultured in a 96-well cell culture plate, and after 24 hours, treated with the compound represented by Formula 1 at a concentration of 0, 0.01, 0.03, 0.1, 0.3, 1, 3, and 10 (μM). After reaction for 72 hours, the plate treated with the compound was left at room temperature for 30 minutes, then further treated with 100 μl of reagent, and shaken at room temperature for 10 minutes. Finally, the ratio of fluorescence values at 570 nm was obtained using the equipment to quantitatively measure and confirmed the inhibitory ability of the compounds. The measurement values measured at eight compound concentrations were analyzed using the Prism program (version 5.01, Graphpad Software, Inc.), and the IC50 value, which is an indicator of the inhibitory ability of the compound, was calculated.

[3] = test system: Ba/F3 EGFR L858R; test: CellTiter-Glo cell viability, Ba/F3 EGFR L858R; assay type: cell-based; details: 72 hours
Procedure: as §4, §5, §6

[4] = test system: Ba/F3 EGFR del19/T790M; test: CellTiter-Glo cell viability, Ba/F3 EGFR del19/T790M; assay type: cell-based; details: 72 hours
Procedure: (§7) An experiment to measure the activity of the compounds of the present invention against the mutant Ba/F3 EGFR cell line was performed as follows using the CellTiter-Glo system sold by Promega. The CellTiter-Glo assay is a method to confirm the cell viability by measuring ATP present in cells in cell culture. For the Ba/F3 EGFR del19, Ba/F3 EGFR del19/T790M, Ba/F3 del19/T790M/C797S mutant cell line, a cell line provided by Crown Bioscience was purchased and used. The Ba/F3 EGFR del19, Ba/F3 EGFR del19/T790M, Ba/F3 del19/T790M/C797S mutant cell line was cultured in RPMI containing 10% FBS and 1% penicillin-streptomycin with 1 μg of puromycin in an incubator at 37° C. and 5% CO2.
as §5
as §6, with “cells/90 μL” for “cells/90 μl”

[5] = target: EGFR A763_Y764insFHEA (Homo sapiens (Human), UniProt P00533, INS763FHEA); test: HTRF enzyme assay, EGFR Ex20 insertion mutant enzyme; assay type: biochemical; details: recombinant enzyme, 37° C. 2 hours
Procedure: An experiment to measure the activity of the compounds of the present invention against EGFR mutant enzymes was performed as follows using the HTRF system sold by Cisbio. For the EGFR mutant enzyme, EGFR A763_Y764insFHEA enzyme, a recombinant protein provided by SignalChem was purchased and used.
as §2, §3

[6] = target: EGFR del19/T790M/C797S (Homo sapiens (Human), UniProt P00533, C797S/DEL746-750/T790M); test: HTRF enzyme assay, EGFR del19/T790M/C797S mutant enzyme; assay type: biochemical; details: enzyme from SignalChem, 37° C. 2 hours
Procedure: as §1, §2, §3

[7] = test system: Ba/F3 EGFR del19/T790M/C797S; test: CellTiter-Glo cell viability, Ba/F3 EGFR del19/T790M/C797S; assay type: cell-based; details: 72 hours
Procedure: as §7, §5
as §6, with “cells/90 μL” for “cells/90 μl”

Chain of EGFR A763_Y764insFHEA (P00533 other isoform, or with tags, fused parts or gaps del 1-694/ins FHEA behind 763 limits assumed): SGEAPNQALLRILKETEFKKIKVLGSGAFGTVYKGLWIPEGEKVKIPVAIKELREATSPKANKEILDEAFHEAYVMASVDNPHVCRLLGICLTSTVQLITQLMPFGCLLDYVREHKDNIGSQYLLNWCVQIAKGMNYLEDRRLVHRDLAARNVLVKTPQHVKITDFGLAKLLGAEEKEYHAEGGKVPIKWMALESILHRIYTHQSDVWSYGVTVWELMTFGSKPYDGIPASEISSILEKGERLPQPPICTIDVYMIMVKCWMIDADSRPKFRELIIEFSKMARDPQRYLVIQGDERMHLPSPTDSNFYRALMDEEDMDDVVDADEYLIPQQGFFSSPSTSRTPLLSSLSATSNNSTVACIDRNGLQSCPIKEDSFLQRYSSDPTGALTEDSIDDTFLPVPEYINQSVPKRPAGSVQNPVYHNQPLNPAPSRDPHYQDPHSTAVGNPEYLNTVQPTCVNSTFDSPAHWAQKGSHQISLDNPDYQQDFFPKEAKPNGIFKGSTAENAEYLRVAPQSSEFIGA
Chain of EGFR del19/T790M (P00533 other isoform, or with tags, fused parts or gaps T790M/del 1-668/del 746-750 limits assumed): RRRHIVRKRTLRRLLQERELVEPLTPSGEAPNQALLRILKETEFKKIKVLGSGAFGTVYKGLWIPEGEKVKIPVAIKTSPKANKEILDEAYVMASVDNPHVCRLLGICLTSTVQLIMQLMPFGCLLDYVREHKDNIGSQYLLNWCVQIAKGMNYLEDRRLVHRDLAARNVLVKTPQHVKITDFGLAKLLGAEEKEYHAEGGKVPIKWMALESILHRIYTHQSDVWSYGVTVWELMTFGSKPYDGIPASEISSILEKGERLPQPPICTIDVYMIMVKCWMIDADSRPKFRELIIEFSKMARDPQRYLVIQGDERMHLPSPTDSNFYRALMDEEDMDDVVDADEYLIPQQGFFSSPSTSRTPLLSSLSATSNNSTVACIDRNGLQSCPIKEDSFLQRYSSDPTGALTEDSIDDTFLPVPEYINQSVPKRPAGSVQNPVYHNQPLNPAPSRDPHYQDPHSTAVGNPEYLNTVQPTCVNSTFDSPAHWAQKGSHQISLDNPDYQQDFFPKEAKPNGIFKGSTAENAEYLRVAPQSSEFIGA
Chain of EGFR del19/T790M/C797S (P00533 other isoform, or with tags, fused parts or gaps T790M/C797S/del 1-694/del 746-750 limits assumed): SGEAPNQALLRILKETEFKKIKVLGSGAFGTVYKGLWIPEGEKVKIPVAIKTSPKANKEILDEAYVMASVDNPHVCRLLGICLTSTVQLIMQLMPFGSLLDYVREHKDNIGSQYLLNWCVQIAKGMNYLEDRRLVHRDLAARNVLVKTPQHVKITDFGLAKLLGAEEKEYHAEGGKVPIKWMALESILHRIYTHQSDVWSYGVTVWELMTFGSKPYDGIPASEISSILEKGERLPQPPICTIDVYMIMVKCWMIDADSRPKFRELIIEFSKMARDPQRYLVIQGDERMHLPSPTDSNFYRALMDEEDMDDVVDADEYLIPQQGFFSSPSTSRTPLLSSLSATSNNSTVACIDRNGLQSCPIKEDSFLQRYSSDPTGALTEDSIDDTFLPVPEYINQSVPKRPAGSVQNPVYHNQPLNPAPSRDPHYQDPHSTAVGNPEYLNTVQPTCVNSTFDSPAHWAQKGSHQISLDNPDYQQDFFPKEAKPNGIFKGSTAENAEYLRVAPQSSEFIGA

IC50 [1] [nM] | IC50 [2] [nM] | IC50 [3] [nM] | IC50 [4] [nM] | IC50 [5] [nM] | IC50 [6] [nM] | IC50 [7] [nM] | Compound
< 1 | < 30 | < 30 | < 30 | 11 | < 1 | < 30 | COc1cc(N2CCC(N3CCN(C)CC3)CC2)ccc1Nc1ncc(Cl)c(Nc2cccc3c2N(S(C)(=O)=O)CCC3)n1 [Example 5, 5-chloro-N2-(2-methoxy-4-(4-(4-methylpiperazin-1-yl)piperidin-1-yl)phenyl)-N4-(1-(methylsulfonyl)-1,2,3,4-tetrahydroquinolin-8-yl)pyrimidine-2,4-diamine]
< 1 | < 30 | < 30 | < 100 | 1.7 | < 1 | < 100 | COc1cc(N2CCC(N3CCN(C)CC3)CC2)ccc1Nc1ncc(Cl)c(Nc2cccc3c2N(S(C)(=O)=O)CC3)n1 [Example 2, 5-chloro-N2-(2-methoxy-4-(4-(4-methylpiperazin-1-yl)piperidin-1-yl)phenyl)-N4-(1-(methylsulfonyl)indolin-7-yl)pyrimidine-2,4-diamine]

From US20240352000A1, “NOVEL PYRIMIDINE-2,4-DIAMINE DERIVATIVES, PREPARATION METHOD THEREFOR, AND PHARMACEUTICAL COMPOSITION CONTAINING SAME AS ACTIVE INGREDIENT FOR PREVENTION OR TREATMENT OF CANCER” (KOREA RESEARCH INSTITUTE OF CHEMICAL TECHNOLOGY, priority 2021, published 2024)
